Test results from patent publication US4800207A, “Hexahydropyrrolizine compounds useful as analgesics” (McNeilab, Inc., priority 1987, dated 1989).

System: Mouse Acetylcholine-Bromide-Induced Abdominal Constriction
Experiment: Mouse Acetylcholine-Bromide-Induced Abdominal Constriction Assay
Type: in vivo
Details: p.o. 30 minutes before 5.5 mg/kg i.p. acetylcholine bromide, ten minute observation; for % Inhibition 30 mg Kg (percent inhibition of writhing, % analgesia): at least 20 animals per group; for ED50: Mus musculus, po, four doses, probit analysis, read-out: ED50 (that dose which inhibits writhing by 50%)
Procedure: Mouse Acetylcholine-Bromide-Induced Abdominal Constriction Assay
The mouse acetylcholine-induced abdominal constriction assay, as described by Collier et al. in Brit. J. Pharmacol. Chemother, 32: 295-310, 1968, with minor modifications was one test used to assess analgesic potency. The test drugs or appropriate vehicle were administered p.o. and 30 minutes later the animals received an i.p. injection of 5.5 mg/kg acetylcholine bromide (Matheson, Coleman and Bell, East Rutherford, N.J.). The mice where then placed in groups of four into glass bell jars and observed for a ten minute observation period for the occurrence of a writhe which is defined as a wave of constriction and elongation passing caudally along the abdominal wall, accompanied by a twisting of the trunk and followed by extension of the hind limbs. The percent inhibition of writhing (equated to % analgesia) was calculated as follows: The % inhibition of writhing, i.e., % analgesia is equal to the difference between the number of control animals writhing and the number of drug-treated animals writhing times 100 divided by the number of control animals writhing.
At least 20 animals were used for control and in each of the drug treated groups. Four doses were used to determine each dose response curve and ED50 (that dose which inhibits writhing by 50%). The ED50 values and their 95% fiducial limits were determined by a computer assisted probit analysis.

SMILES	% Inhibition 30 mg Kg (percent inhibition of writhing, % analgesia)	ED50
Brc1ccccc1C1CCC2CCCN21 (single isomer, unassigned) [2f (diasteriomer A), 3-(2-bromophenyl)hexahydro-1H-pyrrolizine]	60%	–
Brc1ccccc1C1CCC2CCCN21 (single isomer, unassigned) [2f (diasteriomer B), 3-(2-bromophenyl)hexahydro-1H-pyrrolizine]	100%	8.7 mg/kg
c1ccc(C2CCC3CCCN32)cc1 (stereo not drawn) [Example 1, Hexahydro-3-phenyl-1H-pyrrolizine]	100%	5.7 mg/kg
Cc1ccc(C2CCC3CCCN32)cc1 (stereo not drawn) [Example 3d, Hexahydro-3-(4-methylphenyl)-1H-pyrrolizine]	100%	–
